Results: PubChem BioAssay AID493245 (The Scripps Research Institute Molecular Screening Center, 2011)
Active and inactive are the calls of the source. How the calls were made is not given here.

Test system: 3C-like protease (Infectious bronchitis virus)
Test: blockers of SARS 3CLpro activity – biochemical, fluorescence, set 3, late-stage follow-up (AID 493245)
Conditions: recombinant 3CLpro, fluorogenic substrate cleavage; at 100 µM; active compounds read high

Row | Compound | inhibition
1 | O=C(Nc1ccc(N(C(=O)Cn2nnc3ccccc32)C(C(=O)NCc2ccccc2)c2cccc(F)c2)cc1)C1CCC1 (stereo unspecified) | 62.5%
2 | CC(C)C(=O)Nc1ccc(N(C(=O)Cn2nnc3ccccc32)C(C(=O)NCc2ccccc2)c2cccc(F)c2)cc1 (stereo unspecified) | 73.5%
3 | CC(C)(C)NC(=O)C(c1cccnc1)N(C(=O)c1ccco1)C1CCCCC1 (stereo unspecified) | 4.49% (inactive)
4 | CC(C)(C)NC(=O)C(c1cccnc1)N(C(=O)c1ccco1)C1CC2CCC1C2 (stereo unspecified) | 5.71% (inactive)
5 | CC(C)(C)NC(=O)C(c1cccnc1)N(C(=O)c1ccco1)C12CC3CC(CC(C3)C1)C2 (stereo unspecified) | 1.27% (inactive)
6 | O=C(Nc1ccc(N(C(=O)Cn2nnc3ccccc32)C(C(=O)NCc2ccccc2)c2cccc(F)c2)cc1)C1CC1 (stereo unspecified) | 68.8%
